Experimental data: patent US20250275537A1, “CARBOXAMIDE APYRASE INHIBITORS” (Texas Crop Science, Inc., priority 2024, published 2025)

System: apyrase
Assay: Apyrase inhibition assay (Method 1)
Format: biochemical
Settings: inhibitor conc at 1 mM stock, 10 μl per well; 1 hr room temperature; rounded average of at least two assay results
Experimental: Apyrase inhibitors useful as enhancers of pesticidal activity are assessed using an in vitro assay. The method of Windsor, Bio Techniques 33:1024-1030 (November 2002) was used as follows
96 well plates were used for the assay: (Greiner bio-one: REF-655901-96 well, PS, F-bottom, Clear, Non-binding)
• Reaction Buffer: 60 mM Hepes, 3 mM MgCl2, 3 mM CaCl2 and 3 mM ATP (pH 6.5) • Development Buffer A: 2% aqueous ammonium molybdate • Development Buffer B: 11% ascorbic acid in 37.5% TCA in water • Stop buffer C: 2% trisodium citrate in 2% acetic acid solution in water • Add 100 μl of reaction buffer to each well. • Add 10 μl of DMSO (control) or inhibitor/compound or compounds such as N1915 or orthovanadate to each well. (use inhibitor conc at 1 mM; orthovanadate at 2 mM and N1915 at 1 mM) • Add 10 μl of apyrase (concentration based on optimization —Dilute 1 U/μl enzyme to different concentrations such as 0.1U, 0.05U, 0.0025, 0.001U, 0.0005U—to find a good range) • Incubate plate at room temperature for 1 hr • Mix development buffer A and B in the ratio of 1:1.5 (just before use). • Add 50 ul of A:B mix in each well (incubate for 2 mins) • Add 50 ul of C in each well • Measure/Read Absorbance of plate @630 nm
Inhibitory data for the apyrase assay described above are provided for selected compounds in Table 3. In Table 3, D indicates inhibition of <10%.
With reference to Table 3, percent inhibition of apyrase is reported as the rounded average of at least two assay results.

Row | Structure (SMILES) | % Inhibition of Apyrase
1 | CC(NC(=O)c1cccc(C(=O)Nc2ccccc2)c1)C(=O)N1CCS(=O)(=O)CC1 (stereo not shown) [Compound I-32, N^1-(1-(1,1-dioxidothiomorpholino)-1-oxopropan-2-yl)-N^3-phenylisophthalamide] | C (C indicates inhibition of from 10% to 20%)
2 | CNC(=O)c1cccc(C(=O)Nc2ccc(C#N)c(C(F)(F)F)c2)c1 [Compound I-35, N^1-(4-cyano-3-(trifluoromethyl)phenyl)-N^3-methylisophthalamide] | C (C indicates inhibition of from 10% to 20%)
3 | O=C(NCC#Cc1ccccc1)c1ccc(C(=O)Nc2ccccc2)cc1 [Compound I-23, N1-phenyl-N4-(3-phenylprop-2-yn-1-yl)terephthalamide] | C (C indicates inhibition of from 10% to 20%)
4 | O=C1CCCc2ccc(NC(=O)c3ccc4c(c3)C(=O)NCCO4)cc2N1 [Compound I-60, 5-oxo-N-(2-oxo-2,3,4,5-tetrahydro-1H-benzo[b]azepin-8-yl)-2,3,4,5-tetrahydrobenzo[f][1,4]oxazepine-7-carboxamide] | D (D indicates inhibition of <10%)
5 | O=C(NCc1cccc(-n2ccnc2)c1)c1ccc(C(=O)Nc2ccccc2)cc1 [Compound I-27, N^1-(3-(1H-imidazol-1-yl)benzyl)-N^4-phenylterephthalamide] | C (C indicates inhibition of from 10% to 20%)
6 | Cc1n[nH]c2cc(NC(=O)c3cccc(C(=O)Nc4ccc5c(C)n[nH]c5c4)c3)ccc12 [Compound I-19, N^1,N^3-bis(3-methyl-1H-indazol-6-yl)isophthalamide] | B (B indicates inhibition of from 20% to 30%)
7 | N#Cc1cccc(NC(=O)c2ccc(C(=O)Nc3cccc(C#N)c3)cc2)c1 [Compound I-67, N^1,N^4-bis(3-cyanophenyl)terephthalamide] | A (A indicates inhibition above 30%)
8 | O=C(Nc1cccc(N2CCCC2)c1)c1ccc2c(c1)C(=O)NC2=O [Compound I-10, 1,3-dioxo-N-(3-(pyrrolidin-1-yl)phenyl)isoindoline-5-carboxamide] | B (B indicates inhibition of from 20% to 30%)
9 | O=C(Nc1ccccc1)c1cccc(C(=O)Nc2[nH]ncc2-c2ccc3c(c2)OCO3)c1 [Compound I-16, N1-(4-(benzo[d][1,3]dioxol-5-yl)-1H-pyrazol-5-yl)-N3-phenylisophthalamide] | B (B indicates inhibition of from 20% to 30%)
10 | Cc1cccc(C)c1NC(=O)c1ccccc1C(=O)N(C)Cc1ccccc1 [Compound I-37, N^1-benzyl-N^2-(2,6-dimethylphenyl)-N1-methylphthalamide] | D (D indicates inhibition of <10%)
11 | Cc1ccc(NC(=O)c2ccc(C(=O)Nc3ccc(C)cc3)cc2)cc1 [Compound I-1, N^1,N^4-di-p-tolylterephthalamide] | A (A indicates inhibition above 30%)
12 | Cc1cc2c(cc1NC(=O)c1cccc(C(=O)Nc3ccccc3)c1)OCO2 [Compound I-64, N^1-(6-methylbenzo[d][1,3]dioxol-5-yl)-N^3-phenylisophthalamide] | B (B indicates inhibition of from 20% to 30%)
13 | O=C(Nc1ccccc1)c1cccc(C(=O)Nc2cccc(-c3nnn[nH]3)c2)c1 [Compound I-29, N^1-(3-(1H-tetrazol-5-yl)phenyl)-N^3-phenylisophthalamide] | C (C indicates inhibition of from 10% to 20%)
14 | CN(C(=O)c1ccccc1C(=O)Nc1ccc2c(c1)OCO2)C1CCCCC1 [Compound I-18, N^1-(benzo[d][1,3]dioxol-5-yl)-N^2-cyclohexyl-N^2-methylphthalamide] | B (B indicates inhibition of from 20% to 30%)
15 | COC(C)(C)CNC(=O)c1ccc(C(=O)Nc2ccccc2)cc1 [Compound I-28, N^1-(2-methoxy-2-methylpropyl)-N^4-phenylterephthalamide] | C (C indicates inhibition of from 10% to 20%)
16 | CSc1cccc(NC(=O)c2ccc(C(=O)Nc3cccc(SC)c3)cc2)c1 [Compound I-2, N^1,N^4-bis(3-(methylthio)phenyl)terephthalamide] | A (A indicates inhibition above 30%)
